Structures are written as SMILES. Where a name gives a salt, the structure may show the parent alone.

The values below come from US12209079B2 (GENERAL INCORPORATED ASSOCIATION PHARMA VALLEY PROJECT …, priority 2017, dated 2025).

One assay deals with T1, TDO in A172 cells (Homo sapiens, UniProt P48775).
T1 construct: endogenous in cells; host or cells: A172 cells
Briefly: TDO cell-based assay, kynurenine production in A172 cells. The following applies: A 172; final concentration of the compound 10 μM; rate relative to culture without compound. Put shortly: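 A172 cells were preincubated with compound for 1 h, then given L-tryptophan (final 524 μM) for 24 h at 37 °C. Kynurenine was read at 460 nm after p-dimethylbenzaldehyde/TCA reagent, background-subtracted, and expressed as % of no-compound production.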

The target in another assay is T2, IDO in A431 cells (Homo sapiens, UniProt P14902).
T2 construct: endogenous in cells; host or cells: A431 cells, IFN-γ stimulated
T2 sequence (P14902 whole entry): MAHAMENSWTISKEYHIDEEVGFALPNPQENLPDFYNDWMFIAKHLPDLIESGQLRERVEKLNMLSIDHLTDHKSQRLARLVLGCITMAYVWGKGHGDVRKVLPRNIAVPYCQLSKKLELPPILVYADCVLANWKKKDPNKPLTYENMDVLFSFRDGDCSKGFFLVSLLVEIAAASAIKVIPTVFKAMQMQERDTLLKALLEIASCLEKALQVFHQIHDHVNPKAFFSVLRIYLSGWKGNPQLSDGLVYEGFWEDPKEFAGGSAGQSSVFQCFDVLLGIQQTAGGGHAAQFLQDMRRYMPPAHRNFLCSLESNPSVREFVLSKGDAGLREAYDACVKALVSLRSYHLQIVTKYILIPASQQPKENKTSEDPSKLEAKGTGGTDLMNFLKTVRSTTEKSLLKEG
Briefly: IDO cell-based assay, kynurenine production in IFN-γ stimulated A431 cells. As to conditions: A-431, 24 h; final concentration of the compound 10 μM; rate relative to culture without compound. Put shortly:
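A431 cells were cultured 24 h, then preincubated 1 h with compound in medium containing 178 μM L-tryptophan, and stimulated with IFN-γ (diluted to 100 ng/mL before addition) for 24 h. Kynurenine was measured by p-dimethylbenzaldehyde absorbance at 460 nm, background-subtracted, and expressed as % production versus no-compound control.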

Assay [1] has as its target rhIDO (recombinant human IDO) (Homo sapiens, UniProt P14902). Briefly: Enzyme assay using rhIDO (rate of kynurenine production). Type of assay: biochemical. As to conditions: 2 h, read-out: rhIDO-mediated kynurenine production; for remaining activity at 10 µM: final concentration of the compound 10 μM, rate relative to reaction without compound. Put shortly: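 rhIDO preincubated with compound 10 min at 37 °C in phosphate buffer with ascorbate, methylene blue and catalase; started with 2 mM tryptophan solution (stock) and run 120 min at 37 °C. Stopped with TCA and heated to convert N-formylkynurenine; kynurenine read at 490 nm after p-dimethylbenzaldehyde, background-subtracted, as % of no-compound control.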

The target of assay [2] is rhTDO (recombinant human TDO) (Homo sapiens, UniProt P48775). The assay is described as follows: Enzyme assay using rhTDO (rate of kynurenine production). Format: biochemical. As to conditions: 2 h; final concentration of the compound 10 μM; rate relative to reaction without compound; read-out: rhTDO-mediated kynurenine production. Put shortly:
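Kynurenine output, as percent of untreated control after background subtraction, read at 490 nm with p-dimethylbenzaldehyde following TCA quench and 15 min heating at 50 °C. Reaction: rhTDO with compound, 10 min preincubation then 120 min at 37 °C, started by 20 mM tryptophan stock, in phosphate/ascorbate/methylene blue/catalase.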

rhIDO (recombinant human IDO), sequence (P14902 whole entry): as above
T1 sequence (P48775 whole entry): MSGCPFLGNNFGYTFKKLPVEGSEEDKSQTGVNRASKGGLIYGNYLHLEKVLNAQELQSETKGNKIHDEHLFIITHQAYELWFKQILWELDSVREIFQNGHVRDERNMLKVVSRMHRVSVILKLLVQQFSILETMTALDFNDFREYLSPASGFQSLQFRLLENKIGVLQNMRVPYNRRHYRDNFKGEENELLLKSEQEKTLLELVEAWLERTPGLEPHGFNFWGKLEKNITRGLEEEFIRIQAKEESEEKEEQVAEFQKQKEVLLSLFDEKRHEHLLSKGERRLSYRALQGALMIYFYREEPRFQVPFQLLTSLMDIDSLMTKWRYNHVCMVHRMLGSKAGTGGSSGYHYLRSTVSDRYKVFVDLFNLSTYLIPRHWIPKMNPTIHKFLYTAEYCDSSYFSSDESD
rhTDO (recombinant human TDO), sequence (P48775 whole entry): as above

On to `N=C(N)SCc1ccccc1CC(=O)NCCc1ccccc1Cl` [Compound 66, 2-(2-((2-chlorophenethyl)amino)-2-oxoethyl)benzyl carbamimidothioate hydrobromide], for which the remaining activity at 10 µM at TDO in A172 cells was determined as 74%; at IDO in A431 cells, 101%; in assay [1], 80%; in assay [2], 49%.

For the compound `N#Cc1ccc(CNC(=O)Cc2ccccc2CSC(=N)N)cc1` [Compound 67, 2-(2-((4-Cyanobenzyl)amino)-2-oxoethyl)benzyl carbamimidothioate hydrobromide], the remaining activity at 10 µM at TDO in A172 cells stood at 64%; on IDO in A431 cells it was 36%; in assay [1], 39%; in assay [2], 46%.

As to `N=C(N)SCc1ccccc1CC(=O)NCCc1ccc(Cl)cc1` [Compound 68, 2-(2-((4-Chlorophenethyl)amino)-2-oxoethyl)benzyl carbamimidothioate hydrobromide], the remaining activity at 10 µM at TDO in A172 cells was 81%; on IDO in A431 cells, 101%; in assay [1] it was 82%; in assay [2], 31%.

`N=C(N)SCc1ccccc1CC(=O)NCCC1CCCCC1` [Compound 69, 2-(2-((2-Cyclohexylethyl)amino)-2-oxoethyl)benzyl carbamimidothioate hydrobromide]: the remaining activity at 10 µM on TDO in A172 cells was found to be 73%; on IDO in A431 cells it was 101%; in assay [1], 76%; in assay [2], 60%.

For the compound `N=C(N)SCc1ccccc1CC(=O)NCCc1ccc(Cl)c(Cl)c1` [Compound 70, 2-(2-((3,4-Dichlorophenethyl)amino)-2-oxoethyl)benzyl carbamimidothioate hydrobromide], the remaining activity at 10 µM on TDO in A172 cells came out at 96%; on IDO in A431 cells, 98%; in assay [1], 72%; in assay [2], 35%.

In the case of `N=C(N)SCc1ccccc1CC(=O)NCC1CC1` [Compound 71, 2-(2-((Cyclopropylmethyl)amino)-2-oxoethyl)benzyl carbamimidothioate hydrobromide], the remaining activity at 10 µM worked out at 77% on TDO in A172 cells, 96% at IDO in A431 cells, 87% in assay [1] and 67% in assay [2].

For the compound `N=C(N)SCc1ccccc1CC(=O)NCCCCc1ccccc1` [Compound 72, 2-(2-Oxo-2-((4-phenylbutyl)amino)ethyl)benzyl carbamimidothioate hydrobromide], the remaining activity at 10 µM was 68% at TDO in A172 cells, 69% at IDO in A431 cells, 70% in assay [1] and 47% in assay [2].

For `Clc1cc(CSC2=NCN(CC3CC3)CN2)c(CSC2=NCN(CC3CC3)CN2)cc1Cl` [Compound 73, 6,6′-(((4,5-Dichloro-1,2-phenylene)bis(methylene))bis(sulfanediyl))bis(3-(cyclopropylmethyl)-1,2,3,4-tetrahydro-1,3,5-triazine)], the remaining activity at 10 µM is -3% at TDO in A172 cells, 4% at IDO in A431 cells and 4% in assay [2]. The remaining activity at 3 µM in assay [1] (final concentration of the compound 3 μM (data with *)) was found to be 29%.

As for `N=C(N)SCc1cc(Br)ccc1C(=O)NCC1CCCCC1` [Compound 74, 5-Bromo-2-((cyclohexylmethyl)carbamoyl)benzyl carbamimidothioate hydrobromide], the remaining activity at 10 µM on TDO in A172 cells was found to be 47%; at IDO in A431 cells, 75%; in assay [1], 70%; in assay [2] it was 29%.

In the case of `Brc1ccc(CSC2=NCN(CC3CC3)CN2)c(CSC2=NCN(CC3CC3)CN2)c1` [Compound 75, 6,6′-(((4-Bromo-1,2-phenylene)bis(methylene))bis(sulfanediyl))bis(3-(cyclopropylmethyl)-1,2,3,4-tetrahydro-1,3,5-triazine)], the remaining activity at 10 µM amounted to 3% on TDO in A172 cells, 9% on IDO in A431 cells, 35% in assay [1] and 15% in assay [2].

For the compound `CNC(=O)c1ccc(C#N)cc1CSC(=N)N` [Compound 77, 5-Cyano-2-(methylcarbamoyl)benzyl carbamimidothioate hydrobromide], the remaining activity at 10 µM on TDO in A172 cells stood at 89%; at IDO in A431 cells it was 103%; in assay [1], 74%; in assay [2], 101%.

Consider `N=C(N)SCc1cc(Br)ccc1C(=O)NCCc1ccc(Cl)cc1` [Compound 78, 5-Bromo-2-((4-chlorophenethyl)carbamoyl)benzyl carbamimidothioate hydrobromide], for which the remaining activity at 10 µM on TDO in A172 cells turned out to be 56%; at IDO in A431 cells, 112%; in assay [1], 74%; in assay [2], 25%.

Consider `CNC(=O)Cc1ccccc1CS/C(N)=N/c1ccc(Br)cc1` [Compound 79, 2-(2-(Methylamino)-2-oxoethyl)benzyl (E)-N′-(4-bromophenyl)carbamimidothioate hydrobromide], for which the remaining activity at 10 µM at TDO in A172 cells was found to be 38%; at IDO in A431 cells, 60%; in assay [1] it was 90%; in assay [2] it was 34%.

For the compound `CNC(=O)Cc1ccccc1CS/C(N)=N/c1ccc(F)c(Cl)c1` [Compound 80, 2-(2-(Methylamino)-2-oxoethyl)benzyl (E)-N′-(3-chloro-4-fluorophenyl)carbamimidothioate hydrobromide], the remaining activity at 10 µM on TDO in A172 cells turned out to be 45%; on IDO in A431 cells, 66%; in assay [1] it was 97%; in assay [2], 38%.

On to `CNC(=O)c1ccc(C#N)cc1CS/C(N)=N/c1ccc(Br)cc1` [Compound 81, 5-Cyano-2-(methylcarbamoyl)benzyl (E)-N′-(4-bromophenyl)carbamimidothioate hydrobromide], for which the remaining activity at 10 µM at TDO in A172 cells was 89%; at IDO in A431 cells, 78%; in assay [1], 81%; in assay [2], 121%.

As for `N=C(N)SCc1cc(Br)ccc1C(=O)NCc1ccc(Cl)cc1` [Compound 82, 5-Bromo-2-((4-chlorobenzyl)carbamoyl)benzyl carbamimidothioate hydrobromide], the remaining activity at 10 µM at TDO in A172 cells is 37%; on IDO in A431 cells it was 99%; in assay [1], 89%; in assay [2], 27%.

Consider `N/C(=N\c1ccc(F)c(Cl)c1)SCc1cc(Br)ccc1C(=O)NCc1ccc(Cl)cc1` [Compound 83, 5-Bromo-2-((4-chlorobenzyl)carbamoyl)benzyl (E)-N′-(3-chloro-4-fluorophenyl)carbamimidothioate hydrobromide], for which the remaining activity at 10 µM was found to be 21% on TDO in A172 cells, 75% at IDO in A431 cells, 80% in assay [1] and 59% in assay [2].

`N/C(=N\c1ccc(Br)cc1)SCc1cc(Br)ccc1C(=O)NCc1ccc(Cl)cc1` [Compound 84, 5-Bromo-2-((4-chlorobenzyl)carbamoyl)benzyl (E)-N′-(4-bromophenyl)carbamimidothioate hydrobromide]: the remaining activity at 10 µM was found to be 18% at TDO in A172 cells, 56% on IDO in A431 cells, 84% in assay [1] and 65% in assay [2].

For `N#Cc1ccc(CNC(=O)c2ccc(Br)cc2CS/C(N)=N/c2ccc(F)c(Cl)c2)cc1` [Compound 85, 5-Bromo-2-((4-cyanobenzyl)carbamoyl)benzyl (E)-N′-(3-chloro-4-fluorophenyl)carbamimidothioate hydrobromide], the remaining activity at 10 µM at TDO in A172 cells came out at 16%; at IDO in A431 cells, 56%; in assay [1], 71%; in assay [2], 50%.

For the compound `N=C(N)SCc1cc(Br)ccc1C(=O)NCc1ccc(F)cc1` [Compound 86, 5-Bromo-2-((4-fluorobenzyl)carbamoyl)benzyl carbamimidothioate hydrobromide], the remaining activity at 10 µM at TDO in A172 cells amounted to 36%; at IDO in A431 cells, 109%; in assay [1] it was 92%; in assay [2], 46%.

Consider `N#Cc1ccc(CNC(=O)c2ccc(Br)cc2CS/C(N)=N/c2ccc(Br)cc2)cc1` [Compound 87, 5-Bromo-2-((4-cyanobenzyl)carbamoyl)benzyl (E)-N′-(4-bromophenyl)carbamimidothioate hydrobromide], for which the remaining activity at 10 µM was 13% on TDO in A172 cells, 67% on IDO in A431 cells, 75% in assay [1] and 51% in assay [2].
